Reference: US10399931B2, “Octahydroanthracene compound, preparation method and application thereof” (SHANDONG XINHUA PHARMACEUTICAL CO., LTD., priority 2016, dated 2019)

Tests used:
[1] = test system: Human leukemia HL60 cells; assay: MTT assay, proliferation of human leukemia HL60 cells; type: cell-based; conditions: Homo sapiens, HL-60, 48 h, 10 μM, 48 h, Mean ± SE; read-out: Inhibitive rate (%) against HL60 cells
Procedure: The survival rate of cells was determined by MTT assay, which is based on the metabolic reduction of 3-(4,5-dimethyl-2thiahiazoyl)-3,5-di-phenyl-tetrazolium bromide (MTT) by viable cells. MTT is a yellow compound, a dye that accepts hydrogen ion, which can act on the respiratory chain in the mitochondria of viable cells. Under the action of succinate dehydrogenase and cytochrome C, the tetrazolium ring was cleaved to form blue Formazan crystals, and the amount of Formazan crystals generated was only proportional to the number of the viable cells. The enzymes disappeared in dead cells, so Formazan crystals could not be dissolved in MTT solution containing 20% sodium dodecyl sulfate (pH 4.7).
The cells in the logarithmic growth phase were selected and adjusted to an appropriate cell density, seeded in a 96-well plate, 100 μl/well, and cultured in a 37° C., 5% CO2 incubator. The cells were allowed to adhere overnight, then the culture medium was replaced and the drug was added to cultivate for 48 h. A blank control group, a drug administration group and a positive control group were set, with four repeats in each group.
After 48 h of drug treatment, the cells were incubated with 0.25 mg/ml MTT at 37° C. for 3-4 h, and 100 μl of dimethyl sulfoxide (DMSO) was added to each well after aspirating the culture solution.

[2] = test system: microglia; assay: Phagocytosis of β-amyloid protein by microglia in APP/PS1 mice; type: in vivo
Procedure: • 4.3.1. Immersing the paraffin sections in xylene to dewax for 15 min, and 2 times in total; then immersing in gradient alcohols with a gradient of 100%, 100%, 95%, 90%, 85% and 75%, each for 5 min. • 4.3.2. Microwave antigen retrieval: immersing the sections in 0.01 M citrate buffer (pH 6.0), heating to boiling in a microwave oven, and repeating twice; after natural cooling, washing 2 times with PBS for 5 min each time. • 4.3.3. Blocking endogenous peroxidase: blotting around the brain tissue with filter paper, outlining the brain tissue with a PAP pen. Adding dropwise the peroxidase blocker, incubating for 10 min at room temperature, and washing 3 times with PBS for 5 min each time. • 4.3.4. Adding dropwise normal serum blocking solution diluted with 0.01M PBS at a ratio of 1:10, standing at room temperature for 20 min, shaking off the excess liquid and not washing. • 4.3.5. Adding dropwise the primary antibody diluted with 0.01 M PBS, keeping at 4° C. overnight; washing 3 times with 0.01 M PBS for 2 min each time. • 4.3.6. […] Sealing with water-soluble sealant; observing by fluorescence microscopy. […] Washing 3 times with the PBS on a shaker in a dark for 3 min each time; sealing with the water-soluble sealant, and observing by fluorescence microscope. […]

## CC1(C)CCC(C)(C)c2c1cc1c(c2NC(=O)c2ccc(NC(=O)NCCN)cc2)C(C)(C)CCC1(C)C [OAB-14, 1-(2-amino) ethyl-3-{4-[(1,1,4,4,5,5,8,8-octamethyl-1,2,3,4,5,6,7,8-octahydro-9-anthryl)carbamoyl]phenyl} urea]
[1]
  inhibition at 10 µM: 24.3 ± 3.18%
[2]
  Phagocytosis of microglia in the central nervous system to β-amyloid protein: promoting the phagocytosis
